# Assay results taken from patent US10144733B2, “Naphthyridine derivatives as alpha v beta 6 integrin antagonists for the treatment of E.G. fibrotic diseases” (GlaxoSmithKline Intellectual Property Development Limited, priority 2014, dated 2018).
# Experiments:
# Assay type in all cases: cell-based
# αvβ5 = biological target: T1, αvβ5 (Homo sapiens, UniProt P06756+P18084); assay: Cell Adhesion Assay K562-αvβ5 (Vitronectin); conditions: K562-αvβ5 cells, ligand Vitronectin, 2 mM MgCl2; read-out: mean affinity (pIC50) αvβ5 (converted)
# T1 construct: expressed in transfected cells; host or cells: K562
# Experimental: (§1) The following cell lines were used, with ligands in brackets: K562-α5β1 (Fibronectin), K562-αvβ3 (LAP-b1), K562-αvβ5 (Vitronectin), K562-αvβ6 (LAP-b1), K562-αvβ8 (LAP-b1). The divalent cation used to facilitate adhesion was 2 mM MgCl2. Adhesion was quantified by cell labelling with the fluorescent dye BCECF-AM (Life Technologies), where cell suspensions at 3×10^6 cells/mL were incubated with […] of 30 mM BCECF-AM at 37° C. for 10 minutes, before dispensing into the assay plate. At the assay conclusion cells that adhered were lysed using 50 μL/well of 0.5% Triton X-100 in H2O to release fluorescence. Fluorescence intensity was detected using an Envision® plate reader (Perkin Elmer). For active antagonists in the assay, data were fitted to a 4 parameter logistic equation for IC50 determinations.
# αvβ3 = biological target: T2, αvβ3 (Homo sapiens, UniProt P05106+P06756); assay: Cell Adhesion Assay K562-αvβ3 (LAP-b1); conditions: K562-αvβ3 cells, ligand LAP-b1, 2 mM MgCl2; read-out: mean affinity (pIC50) αvβ3 (converted)
# T2 construct: expressed in transfected cells; host or cells: K562
# Experimental: as §1
# αvβ6 = biological target: T3, αvβ6 (Homo sapiens, UniProt P06756+P18564); assay: Cell Adhesion Assay K562-αvβ6 (LAP-b1); conditions: K562-αvβ6 cells, ligand LAP-b1, 2 mM MgCl2; read-out: mean affinity (pIC50) αvβ6 (converted)
# T3 construct: expressed in transfected cells; host or cells: K562
# Experimental: as §1
# αvβ8 = biological target: T4, αvβ8 (Homo sapiens, UniProt P06756+P26012); assay: Cell Adhesion Assay K562-αvβ8 (LAP-b1); conditions: K562-αvβ8 cells, ligand LAP-b1, 2 mM MgCl2; read-out: mean affinity (pIC50) αvβ8 (converted)
# T4 construct: expressed in transfected cells; host or cells: K562
# Experimental: as §1
# αvβ1 = αvβ1 (Homo sapiens, UniProt P05556+P06756); assay: Cell Adhesion Assay αvβ1; conditions: 2 mM MgCl2, cell line and ligand for αvβ1 not given, read-out: mean affinity (pIC50) αvβ1 (converted)
# T1 sequence (P06756 31-889 limits assumed): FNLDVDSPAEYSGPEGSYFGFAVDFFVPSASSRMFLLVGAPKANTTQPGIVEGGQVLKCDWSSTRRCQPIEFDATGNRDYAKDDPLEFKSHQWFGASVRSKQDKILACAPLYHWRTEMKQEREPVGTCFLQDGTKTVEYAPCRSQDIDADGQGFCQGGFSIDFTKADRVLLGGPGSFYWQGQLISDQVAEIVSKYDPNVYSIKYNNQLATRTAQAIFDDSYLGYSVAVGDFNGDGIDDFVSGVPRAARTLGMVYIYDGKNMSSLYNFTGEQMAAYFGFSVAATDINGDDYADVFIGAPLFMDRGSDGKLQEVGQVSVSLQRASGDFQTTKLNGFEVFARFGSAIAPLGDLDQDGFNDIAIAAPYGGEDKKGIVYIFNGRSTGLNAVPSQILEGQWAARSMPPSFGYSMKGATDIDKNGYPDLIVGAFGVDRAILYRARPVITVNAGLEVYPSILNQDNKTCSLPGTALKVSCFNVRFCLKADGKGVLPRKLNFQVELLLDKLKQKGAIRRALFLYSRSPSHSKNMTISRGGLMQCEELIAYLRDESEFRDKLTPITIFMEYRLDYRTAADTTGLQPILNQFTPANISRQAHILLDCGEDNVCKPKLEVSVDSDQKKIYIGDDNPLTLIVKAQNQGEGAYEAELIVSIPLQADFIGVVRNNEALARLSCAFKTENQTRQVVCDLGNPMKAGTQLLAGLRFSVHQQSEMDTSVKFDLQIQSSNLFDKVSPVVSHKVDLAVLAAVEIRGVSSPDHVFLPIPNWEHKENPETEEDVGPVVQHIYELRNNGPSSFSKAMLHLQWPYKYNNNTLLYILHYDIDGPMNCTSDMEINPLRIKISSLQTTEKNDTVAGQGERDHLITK
# T1 sequence (P06756 891-1048 partner limits assumed): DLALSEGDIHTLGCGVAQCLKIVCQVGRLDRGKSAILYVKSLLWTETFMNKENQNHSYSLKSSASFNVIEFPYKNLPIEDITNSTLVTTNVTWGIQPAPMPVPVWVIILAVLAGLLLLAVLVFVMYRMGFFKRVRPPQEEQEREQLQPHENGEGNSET
# T1 sequence (P18084 24-799): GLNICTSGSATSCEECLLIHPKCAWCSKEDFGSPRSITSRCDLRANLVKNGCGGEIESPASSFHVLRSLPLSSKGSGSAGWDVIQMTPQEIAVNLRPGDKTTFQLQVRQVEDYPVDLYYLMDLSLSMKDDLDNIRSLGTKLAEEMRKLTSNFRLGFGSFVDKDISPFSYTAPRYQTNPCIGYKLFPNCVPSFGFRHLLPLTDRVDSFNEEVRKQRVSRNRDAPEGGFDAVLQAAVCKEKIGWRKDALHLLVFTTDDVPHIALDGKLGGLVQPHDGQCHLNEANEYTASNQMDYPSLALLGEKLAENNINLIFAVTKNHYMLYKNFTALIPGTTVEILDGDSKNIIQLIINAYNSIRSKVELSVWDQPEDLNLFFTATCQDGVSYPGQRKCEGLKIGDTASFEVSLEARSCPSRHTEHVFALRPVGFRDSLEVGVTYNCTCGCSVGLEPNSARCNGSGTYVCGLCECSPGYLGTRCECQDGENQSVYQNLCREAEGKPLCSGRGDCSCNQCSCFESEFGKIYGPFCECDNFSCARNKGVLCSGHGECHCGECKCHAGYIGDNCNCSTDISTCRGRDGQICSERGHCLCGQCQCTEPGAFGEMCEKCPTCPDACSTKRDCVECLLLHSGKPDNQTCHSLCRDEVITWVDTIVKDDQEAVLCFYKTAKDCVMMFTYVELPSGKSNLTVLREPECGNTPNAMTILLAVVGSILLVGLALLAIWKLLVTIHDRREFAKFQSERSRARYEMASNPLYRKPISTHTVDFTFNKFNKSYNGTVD
# T3 sequence (P06756 31-889 limits assumed): as the sequence (P06756 31-889 limits assumed) above
# T3 sequence (P06756 891-1048 partner limits assumed): as the sequence (P06756 891-1048 partner limits assumed) above
# T3 sequence (P18564 22-788): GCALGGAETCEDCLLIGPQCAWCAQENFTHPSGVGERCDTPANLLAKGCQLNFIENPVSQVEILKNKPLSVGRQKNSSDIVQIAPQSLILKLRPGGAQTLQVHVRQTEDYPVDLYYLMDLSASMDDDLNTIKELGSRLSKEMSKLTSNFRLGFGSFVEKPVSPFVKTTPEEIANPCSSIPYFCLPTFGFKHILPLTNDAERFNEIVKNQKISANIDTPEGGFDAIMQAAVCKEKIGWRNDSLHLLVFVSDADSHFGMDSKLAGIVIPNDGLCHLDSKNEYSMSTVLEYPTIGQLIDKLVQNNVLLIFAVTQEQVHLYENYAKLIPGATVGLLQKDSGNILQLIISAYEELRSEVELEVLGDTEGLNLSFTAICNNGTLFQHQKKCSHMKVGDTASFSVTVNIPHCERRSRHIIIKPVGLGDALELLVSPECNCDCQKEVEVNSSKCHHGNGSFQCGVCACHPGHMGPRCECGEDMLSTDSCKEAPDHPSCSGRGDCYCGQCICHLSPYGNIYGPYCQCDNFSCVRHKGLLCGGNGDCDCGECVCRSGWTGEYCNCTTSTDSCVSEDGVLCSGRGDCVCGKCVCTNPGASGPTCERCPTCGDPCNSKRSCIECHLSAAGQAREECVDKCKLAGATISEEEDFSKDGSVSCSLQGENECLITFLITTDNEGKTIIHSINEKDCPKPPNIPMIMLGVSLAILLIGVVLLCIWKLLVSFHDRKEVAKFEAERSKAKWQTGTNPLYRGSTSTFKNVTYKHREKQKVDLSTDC
# T2 sequence (P06756 31-889 limits assumed): as the sequence (P06756 31-889 limits assumed) above
# T2 sequence (P06756 891-1048 partner limits assumed): as the sequence (P06756 891-1048 partner limits assumed) above
# T2 sequence (P05106 27-788): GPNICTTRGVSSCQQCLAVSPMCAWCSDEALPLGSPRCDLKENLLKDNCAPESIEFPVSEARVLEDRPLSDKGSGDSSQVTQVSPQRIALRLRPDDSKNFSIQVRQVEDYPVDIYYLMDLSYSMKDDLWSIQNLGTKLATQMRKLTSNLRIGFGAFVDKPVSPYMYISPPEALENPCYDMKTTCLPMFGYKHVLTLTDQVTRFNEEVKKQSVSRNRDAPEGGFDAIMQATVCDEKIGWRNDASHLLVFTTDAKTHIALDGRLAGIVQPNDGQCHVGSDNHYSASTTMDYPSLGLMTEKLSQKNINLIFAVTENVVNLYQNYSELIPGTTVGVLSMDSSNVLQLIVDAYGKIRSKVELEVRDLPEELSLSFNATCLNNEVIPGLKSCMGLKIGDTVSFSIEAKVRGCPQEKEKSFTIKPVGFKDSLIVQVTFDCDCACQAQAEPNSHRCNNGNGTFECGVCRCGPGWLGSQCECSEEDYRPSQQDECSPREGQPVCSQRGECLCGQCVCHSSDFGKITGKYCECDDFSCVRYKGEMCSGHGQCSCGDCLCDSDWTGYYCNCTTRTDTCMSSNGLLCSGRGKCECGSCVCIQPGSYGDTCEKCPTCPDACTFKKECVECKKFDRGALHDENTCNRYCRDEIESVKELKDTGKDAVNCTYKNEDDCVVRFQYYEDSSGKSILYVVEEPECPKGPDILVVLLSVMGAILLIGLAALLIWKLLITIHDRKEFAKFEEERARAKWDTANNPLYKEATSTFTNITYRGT
# T4 sequence (P06756 31-889 limits assumed): as the sequence (P06756 31-889 limits assumed) above
# T4 sequence (P06756 891-1048 partner limits assumed): as the sequence (P06756 891-1048 partner limits assumed) above
# T4 sequence (P26012 43-769): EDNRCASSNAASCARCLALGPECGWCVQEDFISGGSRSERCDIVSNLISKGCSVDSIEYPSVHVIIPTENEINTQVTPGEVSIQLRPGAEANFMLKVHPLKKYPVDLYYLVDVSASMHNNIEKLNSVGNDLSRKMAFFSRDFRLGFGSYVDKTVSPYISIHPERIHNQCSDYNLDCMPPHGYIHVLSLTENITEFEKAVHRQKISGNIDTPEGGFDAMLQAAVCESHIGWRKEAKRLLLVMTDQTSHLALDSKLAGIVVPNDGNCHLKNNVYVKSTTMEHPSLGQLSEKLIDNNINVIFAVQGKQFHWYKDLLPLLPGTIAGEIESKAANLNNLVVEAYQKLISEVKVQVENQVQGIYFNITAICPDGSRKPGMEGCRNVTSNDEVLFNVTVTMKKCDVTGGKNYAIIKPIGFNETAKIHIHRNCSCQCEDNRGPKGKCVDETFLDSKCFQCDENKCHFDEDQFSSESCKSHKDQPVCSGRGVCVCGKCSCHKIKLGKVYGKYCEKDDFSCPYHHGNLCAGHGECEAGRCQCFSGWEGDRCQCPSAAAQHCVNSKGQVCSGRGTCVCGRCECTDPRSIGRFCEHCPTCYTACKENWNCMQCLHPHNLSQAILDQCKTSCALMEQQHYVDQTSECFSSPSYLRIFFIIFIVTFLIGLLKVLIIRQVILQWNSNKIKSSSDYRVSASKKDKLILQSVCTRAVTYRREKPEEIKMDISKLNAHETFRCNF
Compound,IC50 (αvβ5) [µM],IC50 (αvβ3) [µM],IC50 (αvβ6) [µM],IC50 (αvβ8) [µM],IC50 (αvβ1) [µM]
"Cc1cc(C(C)(C)O)nn1-c1cccc(C(CC(=O)O)CN2CC[C@@H](CCc3ccc4c(n3)NCCC4)C2)c1 (single isomer, unassigned) [Example 6]",0.2,3.98,0.0126,0.0501,–
"Cc1cc(CO)nn1-c1cccc(C(CC(=O)O)CN2CC[C@@H](CCc3ccc4c(n3)NCCC4)C2)c1 (single isomer, unassigned) [Example 10]",0.158,0.631,0.00251,0.01,–
"O=C(O)CC(CN1CC[C@@H](CCc2ccc3c(n2)NCCC3)C1)c1cccc(-n2ccc(C(F)(F)F)n2)c1 (stereo partly drawn) [Example 7, 4-((R)-3-(2-(5,6,7,8-tetrahydro-1,8-naphthyridin-2-yl)ethyl)pyrrolidin-1-yl)-3-(3-(3-(trifluoromethyl)-1H-pyrazol-1-yl)phenyl) butanoic acid]",0.0501,0.631,0.00631,0.0251,–
"Cc1cc(CF)nn1-c1cccc(C(CC(=O)O)CN2CC[C@@H](CCc3ccc4c(n3)NCCC4)C2)c1 (stereo partly drawn) [Example 11, 3-(3-(3-(fluoromethyl)-5-methyl-1H-pyrazol-1-yl)phenyl)-4-((R)-3-(2-(5,6,7,8-tetrahydro-18-naphthyridin-2-yl)ethyl)pyrrolidin-1-yl)butanoic acid]",0.158,1.26,0.00316,0.0158,0.0631
